Measurements: patent publication US20070117743A1, “New antitumoral compounds” (priority 2003, published 2007)
Where a SMILES comes first, the peptide text is derived from it. Bridges are numbered along the chain shown (N, C = ends). [ ]: non-standard residue; d: D form. The star is where a group is joined. d(aIle) = CC[C@H](C)[C@@H](N)C(=O)O; d(aThr) = C[C@@H](O)[C@@H](N)C(=O)O; Hexanoyl(5-Me) = CC(C)CCCC(=O)*; Orn = NCCC[C@H](N)C(=O)O; Dhb = C/C=C(\N)C(=O)O

How the values were obtained:
Format in all cases: cell-based, human
DU-145 = experiment: SRB colorimetric assay of cell growth and viability, DU-145; conditions: DU-145; 48 hours exposure
HeLa = experiment: SRB colorimetric assay of cell growth and viability, HeLa; conditions: HELA, 48 hours exposure; for CC50: read-out: LC50 HELA
A-549 = experiment: SRB colorimetric assay of cell growth and viability, A-549; conditions: A-549, 48 hours exposure; for GI50: read-out: GI50 A-549; for CC50: read-out: LC50 A-549
SK-MEL-28 = experiment: SRB colorimetric assay of cell growth and viability, SK-MEL-28; conditions: MEL-28, 48 hours exposure; for CC50: read-out: LC50 MEL-28
SK-BR-3 = experiment: SRB colorimetric assay of cell growth and viability, SK-BR-3; conditions: SK-BR-3; 48 hours exposure
PANC-1 = experiment: SRB colorimetric assay of cell growth and viability, PANC-1; conditions: PANC-1, 48 hours exposure; for CC50: read-out: LC50 PANC-1
LoVo-Dox = experiment: SRB colorimetric assay of cell growth and viability, LoVo-Dox; conditions: LOVO-DOX, 48 hours exposure; for CC50: read-out: LC50 LOVO-DOX
Outline: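 Tumor cells are continuously exposed to sample for 48 hours, with vehicle DMSO:EtOH:PBS (0.5:0.5:99), after an 18-hour drug-free attachment period. Bound SRB, measured at 490 nm, reflects cell mass; GI, TGI and LC are derived from triplicate means.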

HT-29 = experiment: SRB colorimetric assay of cell growth and viability, HT-29; conditions: HT-29, 48 hours exposure; for GI50: read-out: GI50 HT-29; for CC50: read-out: LC50 HT-29
LNCaP = experiment: SRB colorimetric assay of cell growth and viability, LNCaP; conditions: LN-caP, 48 hours exposure; for CC50: read-out: LC50 LN-caP
K-562 = experiment: SRB colorimetric assay of cell growth and viability, K-562; conditions: K-562, 48 hours exposure; for CC50: read-out: LC50 K-562
HeLa-APL = experiment: SRB colorimetric assay of cell growth and viability, HeLa-APL; conditions: HELA-APL, 48 hours exposure; for CC50: read-out: LC50 HELA-APL
IGROV-1 = experiment: SRB colorimetric assay of cell growth and viability, IGROV-1; conditions: IGROV; 48 hours exposure
IGROV-ET = experiment: SRB colorimetric assay of cell growth and viability, IGROV-ET; conditions: IGROV-ET, 48 hours exposure; for CC50: read-out: LC50 IGROV-ET

SMILES | GI50 (DU-145) [µM] | LC50 (concentration causing 50% net cell kill) (DU-145) [µM] | TGI DU-145 (DU-145) [Molar] | GI50 (HeLa) [µM] | TGI HELA (HeLa) [Molar] | CC50 (HeLa) [µM] | TGI A-549 (A-549) [Molar] | GI50 (A-549) [µM] | CC50 (A-549) [µM] | GI50 (SK-MEL-28) [µM] | TGI MEL-28 (SK-MEL-28) [Molar] | CC50 (SK-MEL-28) [µM] | GI50 (SK-BR-3) [µM] | LC50 (SK-BR-3) [µM] | TGI SK-BR-3 (SK-BR-3) [Molar] | GI50 (PANC-1) [µM] | TGI PANC-1 (PANC-1) [Molar] | CC50 (PANC-1) [µM] | GI50 (LoVo-Dox) [µM] | TGI LOVO-DOX (LoVo-Dox) [Molar] | other results
C/C=C1\NC(=O)[C@H](Cc2ccccc2)NC(=O)[C@@H](C(C)C)NC(=O)[C@@H]([C@@H](C)CC)NC(=O)[C@H](NC(=O)[C@H](NC(=O)[C@H](CCCN)NC(=O)[C@H]2CCCN2C(=O)[C@H](NC(=O)[C@@H](NC(=O)[C@@H](NC(=O)[C@@H](CCCN)NC(=O)CCCC(C)C)[C@@H](C)O)C(C)C)C(C)C)[C@@H](C)CC)[C@@H](C)OC(=O)[C@H](C(C)C)NC1=O [Compound 118, [D-Orn^13]-KF] | 1.86 | 6.7 | 3.84E−06 | 1.57 | 3.30E−06 | 6.7 | 4.21E−06 | 1.96 | 6.7 | 1.49 | 2.88E−06 | 5.55 | 0.851 | 4.42 | 1.94E−06 | 2.09 | 4.74E−06 | 6.7 | 1.59 | 3.28E−06 | CC50 (LoVo-Dox): 6.7 µM; TGI HT-29 (HT-29): 2.84E−06 Molar; GI50 (HT-29): 1.2 µM; CC50 (HT-29): 6.7 µM; GI50 (LNCaP): 2.87 µM; TGI LN-caP (LNCaP): 6.70E−06 Molar; CC50 (LNCaP): 6.7 µM; GI50 (K-562): 1.6 µM; TGI K-562 (K-562): 3.92E−06 Molar; CC50 (K-562): 6.7 µM; GI50 (HeLa-APL): 1.86 µM; TGI HELA-APL (HeLa-APL): 4.15E−06 Molar; CC50 (HeLa-APL): 6.7 µM; GI50 (IGROV-1): 1.45 µM; LC50 (concentration causing 50% net cell killing) (IGROV-1): 5.24 µM; TGI IGROV (IGROV-1): 2.76E−06 Molar; GI50 (IGROV-ET): 1.85 µM; TGI IGROV-ET (IGROV-ET): 3.74E−06 Molar; CC50 (IGROV-ET): 6.7 µM
C/C=C1\NC(=O)[C@H](Cc2ccccc2)NC(=O)[C@@H](C(C)C)NC(=O)[C@@H]([C@@H](C)CC)NC(=O)[C@H](NC(=O)[C@H](NC(=O)[C@H](CCCN)NC(=O)[C@H]2CCCN2C(=O)[C@H](NC(=O)[C@@H](NC(=O)[C@H](CCCN)NC(=O)[C@H](NC(=O)CCCC(C)C)C(C)C)C(C)C)C(C)C)[C@@H](C)CC)[C@@H](C)OC(=O)[C@H](C(C)C)NC1=O [Compound 116, [Orn^12]-KF] ({Hexanoyl(5-Me)}-[dV][Orn]V[dV][dP][Orn][d(aIle)][d(aThr)][d(aIle)][dV]F[Dhb]V; ester 8-C) | 3.32 | 6.71 | 6.71E−06 | 1.54 | 3.35E−06 | 6.71 | 6.71E−06 | 6.71 | 6.71 | 4.32 | 6.71E−06 | 6.71 | 1.45 | 5.51 | 2.82E−06 | 6.08 | 6.71E−06 | 6.71 | 1.94 | 3.71E−06 | CC50 (LoVo-Dox): 6.71 µM; TGI HT-29 (HT-29): 3.88E−06 Molar; GI50 (HT-29): 2.24 µM; CC50 (HT-29): 6.71 µM; GI50 (LNCaP): 1.54 µM; TGI LN-caP (LNCaP): 3.10E−06 Molar; CC50 (LNCaP): 6.24 µM; GI50 (K-562): 0.919 µM; TGI K-562 (K-562): 2.34E−06 Molar; CC50 (K-562): 5.94 µM; GI50 (HeLa-APL): 3 µM; TGI HELA-APL (HeLa-APL): 6.71E−06 Molar; CC50 (HeLa-APL): 6.71 µM; GI50 (IGROV-1): 2.05 µM; LC50 (concentration causing 50% net cell killing) (IGROV-1): 6.71 µM; TGI IGROV (IGROV-1): 3.86E−06 Molar; GI50 (IGROV-ET): 1.87 µM; TGI IGROV-ET (IGROV-ET): 3.23E−06 Molar; CC50 (IGROV-ET): 5.55 µM
C/C=C1\NC(=O)[C@H](Cc2ccccc2)NC(=O)[C@@H](C(C)C)NC(=O)[C@@H]([C@@H](C)CC)NC(=O)[C@H](NC(=O)[C@H](NC(=O)[C@H](CCCN)NC(=O)[C@H]2CCCN2C(=O)[C@H](NC(=O)[C@@H](NC(=O)[C@H](CCC(=O)O)NC(=O)[C@H](NC(=O)CCCC(C)C)C(C)C)C(C)C)C(C)C)[C@@H](C)CC)[C@@H](C)OC(=O)[C@H](C(C)C)NC1=O [Compound 115, [Glu^12]-KF] ({Hexanoyl(5-Me)}-[dV]EV[dV][dP][Orn][d(aIle)][d(aThr)][d(aIle)][dV]F[Dhb]V; ester 8-C) | 3.25 | 6.64 | 6.64E−06 | 6.64 | 6.64E−06 | 6.64 | 6.64E−06 | 4.1 | 6.64 | 6.5 | 6.64E−06 | 6.64 | 1.35 | 6.64 | 3.01E−06 | 6.64 | 6.64E−06 | 6.64 | 1.52 | 3.00E−06 | CC50 (LoVo-Dox): 5.92 µM; TGI HT-29 (HT-29): 2.60E−06 Molar; GI50 (HT-29): 1.33 µM; CC50 (HT-29): 5.09 µM; GI50 (LNCaP): 1.28 µM; TGI LN-caP (LNCaP): 2.54E−06 Molar; CC50 (LNCaP): 5.01 µM; GI50 (K-562): 6.64 µM; TGI K-562 (K-562): 6.64E−06 Molar; CC50 (K-562): 6.64 µM; GI50 (HeLa-APL): 2.99 µM; TGI HELA-APL (HeLa-APL): 6.64E−06 Molar; CC50 (HeLa-APL): 6.64 µM; GI50 (IGROV-1): 1.54 µM; LC50 (concentration causing 50% net cell killing) (IGROV-1): 6.64 µM; TGI IGROV (IGROV-1): 3.59E−06 Molar; GI50 (IGROV-ET): 1.67 µM; TGI IGROV-ET (IGROV-ET): 3.12E−06 Molar; CC50 (IGROV-ET): 5.83 µM
